Reference: the NIST ThermoML archive (doi:10.1021/je200721d)

Test: xn = mol fraction of the nth substance listed
Conditions: Liquid, Vibrating tube method

CCCCCCCCCC [decane] + CCCCCC
Conditions	mass density [kg/m3]
352.99 K, 19000 kPa, x2 = 0.7524	655.43
352.99 K, 20000 kPa, x2 = 0.0456	701.21
352.99 K, 20000 kPa, x2 = 0.7524	656.5
352.99 K, 21000 kPa, x2 = 0.0456	702.11
352.99 K, 21000 kPa, x2 = 0.7524	657.54
352.99 K, 22000 kPa, x2 = 0.0456	702.98
352.99 K, 22000 kPa, x2 = 0.7524	658.56
352.99 K, 23000 kPa, x2 = 0.0456	703.83
352.99 K, 23000 kPa, x2 = 0.7524	659.55
352.99 K, 24000 kPa, x2 = 0.0456	704.67
352.99 K, 24000 kPa, x2 = 0.7524	660.56
352.99 K, 25000 kPa, x2 = 0.0456	705.49
352.99 K, 25000 kPa, x2 = 0.7524	661.49
353 K, 1000 kPa, x2 = 0.2185	673.09
353 K, 2000 kPa, x2 = 0.2185	674.25
353 K, 3000 kPa, x2 = 0.2185	675.39
353 K, 4000 kPa, x2 = 0.2185	676.51
353 K, 5000 kPa, x2 = 0.2185	677.65
353 K, 6000 kPa, x2 = 0.2185	678.75
353 K, 7000 kPa, x2 = 0.2185	679.82
353 K, 8000 kPa, x2 = 0.2185	680.92
353 K, 9000 kPa, x2 = 0.2185	681.98
353 K, 10000 kPa, x2 = 0.2185	683.03
353 K, 11000 kPa, x2 = 0.2185	684.07
353 K, 12000 kPa, x2 = 0.2185	685.08
353 K, 13000 kPa, x2 = 0.2185	686.09
353 K, 14000 kPa, x2 = 0.2185	687.09
353 K, 15000 kPa, x2 = 0.2185	688.08
353 K, 16000 kPa, x2 = 0.2185	689.03
353 K, 17000 kPa, x2 = 0.2185	689.97
353 K, 18000 kPa, x2 = 0.2185	690.9
353 K, 19000 kPa, x2 = 0.2185	691.79
353 K, 20000 kPa, x2 = 0.2185	692.7
353 K, 21000 kPa, x2 = 0.2185	693.59
353 K, 22000 kPa, x2 = 0.2185	694.47
353 K, 23000 kPa, x2 = 0.2185	695.35
353 K, 24000 kPa, x2 = 0.2185	696.22
353 K, 25000 kPa, x2 = 0.2185	697.07
353.01 K, 1000 kPa, x2 = 0.4968	654.56
353.01 K, 2000 kPa, x2 = 0.4968	655.89
353.01 K, 3000 kPa, x2 = 0.4968	657.2
353.01 K, 4000 kPa, x2 = 0.4968	658.52
353.01 K, 5000 kPa, x2 = 0.4968	659.83
353.01 K, 6000 kPa, x2 = 0.4968	661.12
353.01 K, 7000 kPa, x2 = 0.4968	662.3
353.01 K, 8000 kPa, x2 = 0.4968	663.52
353.01 K, 9000 kPa, x2 = 0.4968	664.66
353.01 K, 10000 kPa, x2 = 0.4968	665.8
353.01 K, 11000 kPa, x2 = 0.4968	666.94
353.01 K, 12000 kPa, x2 = 0.4968	668.05
353.01 K, 13000 kPa, x2 = 0.4968	669.13
353.01 K, 14000 kPa, x2 = 0.4968	670.21
353.01 K, 15000 kPa, x2 = 0.4968	671.26
353.01 K, 16000 kPa, x2 = 0.4968	672.3
353.01 K, 17000 kPa, x2 = 0.4968	673.3
353.01 K, 18000 kPa, x2 = 0.4968	674.32
353.01 K, 19000 kPa, x2 = 0.4968	675.27
353.01 K, 20000 kPa, x2 = 0.4968	676.25
353.01 K, 21000 kPa, x2 = 0.4968	677.22
353.01 K, 22000 kPa, x2 = 0.4968	678.15
353.01 K, 23000 kPa, x2 = 0.4968	679.08
353.01 K, 24000 kPa, x2 = 0.4968	680
353.01 K, 25000 kPa, x2 = 0.4968	680.91
362.59 K, 1000 kPa, x2 = 0.8991	607.57
362.59 K, 2000 kPa, x2 = 0.8991	609.29
362.59 K, 3000 kPa, x2 = 0.8991	610.97
362.59 K, 4000 kPa, x2 = 0.8991	612.62
362.59 K, 5000 kPa, x2 = 0.8991	614.24
362.59 K, 6000 kPa, x2 = 0.8991	615.83
362.59 K, 7000 kPa, x2 = 0.8991	617.37
362.59 K, 8000 kPa, x2 = 0.8991	618.92
362.59 K, 9000 kPa, x2 = 0.8991	620.4
362.59 K, 10000 kPa, x2 = 0.8991	621.89
362.59 K, 11000 kPa, x2 = 0.8991	623.32
362.59 K, 12000 kPa, x2 = 0.8991	624.72
362.59 K, 13000 kPa, x2 = 0.8991	626.12
362.59 K, 14000 kPa, x2 = 0.8991	627.49
362.59 K, 15000 kPa, x2 = 0.8991	628.8
362.59 K, 16000 kPa, x2 = 0.8991	630.11
362.59 K, 17000 kPa, x2 = 0.8991	631.37
362.59 K, 18000 kPa, x2 = 0.8991	632.62
362.59 K, 19000 kPa, x2 = 0.8991	633.83
362.59 K, 20000 kPa, x2 = 0.8991	635.04
362.59 K, 21000 kPa, x2 = 0.8991	636.21
362.59 K, 22000 kPa, x2 = 0.8991	637.35
362.59 K, 23000 kPa, x2 = 0.8991	638.45
362.59 K, 24000 kPa, x2 = 0.8991	639.52
362.59 K, 25000 kPa, x2 = 0.8991	640.65
362.91 K, 1000 kPa, x2 = 0.0456	674.5
362.91 K, 2000 kPa, x2 = 0.0456	675.7
362.91 K, 3000 kPa, x2 = 0.0456	676.88
362.91 K, 4000 kPa, x2 = 0.0456	678.04
362.91 K, 5000 kPa, x2 = 0.0456	679.18
362.91 K, 6000 kPa, x2 = 0.0456	680.32
